Tests used:
hSERT = biological target: T1, hSERT (Homo sapiens, UniProt P31645); experiment: SERT radioligand binding assay ([125I]RTI-55, HEK-hSERT membranes); settings: [125I]RTI-55, 1 hour at room temperature
T1 construct: expressed in transfected cells; host or cells: HEK-293 cells (crude membranes)
Protocol: (§1) NK-1 Binding assay. Crude membrane suspensions were prepared for the NK1 and SERT radioligand binding assays from U373 cells or recombinant HEK-293 cells expressing hSERT, respectively. Cells were harvested from T-175 flasks as follows. The medium is removed from the flasks and the cells rinsed with HBSS without Ca and without Mg. The cells are then incubated for 5-10 minutes in 10 mM Tris-Cl, pH 7.5, 5 mM EDTA before the cells are lifted with a combination of pipetting and scraping, as needed. To prepare membranes, the cell suspension is collected into centrifuge bottles and homogenized for 30 seconds with a Polytron homogenizer. The suspension is centrifuged for 30 min @ 32,000×g, 4° C., then the supernatant is decanted and the pellet resuspended and homogenized in 50 mM Tris-Cl, pH 7.5, 1 mM EDTA for 10 seconds. The suspension is then centrifuged again for 30 min @ 32,000×g, 4° C. The supernatant is decanted and the pellet resuspended in 50 mM Tris-Cl, pH 7.5, 1 mM EDTA and briefly homogenized. A Bradford assay (Bio-rad) is performed and the membrane preparation diluted to 2 mg/ml with 50 mM Tris-Cl, pH 7.5, 1 mM EDTA. Aliquots are prepared, and then frozen and stored at −80° C.
SERT radioligand binding assay. Compounds are dissolved in 100% DMSO at a concentration 100× the desired highest assay concentration, serially diluted 1:3 in 100% DMSO, and 0.4 ul/well of each solution is dispensed to a Nunc polypropylene, round bottom, 384 well plate. 100% inhibition is defined with 0.4 ul/well of 1 mM fluoxetine (Sigma F-132) dissolved in DMSO. 20 ul/well of a 2×HEK-hSERT membrane preparation (15 ug/ml in 50 mM Tris-Cl, pH 7.5, 120 mM NaCl, 5 mM KCl) and 20 ul/well of a 2×radioligand solution (520 pM [^125I]RTI-55 (Perkin-Elmer NEX-272) in 50 mM Tris-Cl, pH 7.5, 120 mM NaCl, 5 mM KCl) are added to each well and the reaction incubated for 1 hour at room temperature. The contents of the assay plate are then transferred to a Millipore MultiscreenHTS GF/B filter plate which has been pretreated with 0.5% PEI for at least one hour. The plate is vacuum filtered and washed with 7 washes of 100 ul/well of 50 mM Tris-Cl, pH 7.5, 120 mM NaCl, 5 mM KCl chilled to 4° C. The filtration and washing is completed in less than 90 s. The plates are air-dried overnight, 12 ul/well of MicroScint scintillation fluid added, and the plates counted in a Trilux.
(§2) Data analysis. The raw data are normalized to percent inhibition using control wells defining 0% (DMSO only) and 100% (selective inhibitor) inhibition which are run on each plate. Each plate is run in triplicate, and the concentration response curve thus generated is fit using the four-parameter dose response equation, Y=Bottom+(Top-Bottom)/(1+10^((LogIC50-X)*HillSlope)) in order to determine the IC50 value for each compound. The radioligand concentration chosen for each assay corresponds to the Kd concentration determined through saturation binding analysis for each assay.

NK-1 = biological target: T2, NK-1 (Homo sapiens, UniProt P25103); experiment: NK1 radioligand binding assay ([125I]Substance P, U373 cell membranes); settings: 1 hour at room temperature
T2 construct: endogenous in cells; host or cells: U373 cells (crude membranes)
T2 sequence (P25103 whole entry): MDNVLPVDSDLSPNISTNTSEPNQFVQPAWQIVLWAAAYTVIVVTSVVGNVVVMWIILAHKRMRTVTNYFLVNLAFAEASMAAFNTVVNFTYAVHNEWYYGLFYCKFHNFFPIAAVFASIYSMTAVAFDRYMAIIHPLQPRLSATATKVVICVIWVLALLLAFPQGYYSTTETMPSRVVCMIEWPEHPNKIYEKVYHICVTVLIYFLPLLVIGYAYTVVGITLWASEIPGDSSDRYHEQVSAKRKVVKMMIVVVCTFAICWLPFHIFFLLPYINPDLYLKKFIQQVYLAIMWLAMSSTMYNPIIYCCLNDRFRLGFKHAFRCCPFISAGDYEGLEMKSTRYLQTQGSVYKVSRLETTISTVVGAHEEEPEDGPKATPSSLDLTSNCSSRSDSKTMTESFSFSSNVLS
Protocol: as §1
NK1 radioligand binding assay. Compounds are dissolved in 100% DMSO at a concentration 100× the desired highest assay concentration, serially diluted 1:3 in 100% DMSO, and 0.6 ul/well of each solution is dispensed to a Nunc polypropylene, round bottom, 384 well plate. 100% inhibition is defined with 0.6 ul/well of 1 mM L-733,060 (Sigma L-137) dissolved in DMSO. 30 ul/well of a 2×U373 membrane preparation (267 ug/ml in 100 mM Tris-Cl, pH 7.5, 6 mM MgCl2, 0.2% (v/v) Sigma mammalian protease inhibitor cocktail (Sigma P-8340), and 4 ug/ml chymostatin, Sigma C-7268) and 30 ul/well of a 2×radioligand solution (400 pM [^125I]Substance P (Perkin Elmer NEX-190) in 1% (w/v) BSA (Sigma A-2153), 0.1 mg/ml bacitracin, Sigma B-0125) are added to the well and the reaction incubated for 1 hour at room temperature. The contents of the assay plate are then transferred to a Millipore MultiscreenHTS GF/B filter plate which has been pretreated with 0.5% PEI for at least one hour. The plate is vacuum filtered and washed with 7 washes of 100 ul/well of 20 mM Tris-Cl, pH 7.5, 0.5% (w/v) BSA chilled to 4° C. The filtration and washing is completed in less than 90 s. The plates are air-dried overnight, 12 ul/well of MicroScint scintillation fluid added, and the plates counted in a Trilux.
as §2

T1 sequence (P31645 whole entry): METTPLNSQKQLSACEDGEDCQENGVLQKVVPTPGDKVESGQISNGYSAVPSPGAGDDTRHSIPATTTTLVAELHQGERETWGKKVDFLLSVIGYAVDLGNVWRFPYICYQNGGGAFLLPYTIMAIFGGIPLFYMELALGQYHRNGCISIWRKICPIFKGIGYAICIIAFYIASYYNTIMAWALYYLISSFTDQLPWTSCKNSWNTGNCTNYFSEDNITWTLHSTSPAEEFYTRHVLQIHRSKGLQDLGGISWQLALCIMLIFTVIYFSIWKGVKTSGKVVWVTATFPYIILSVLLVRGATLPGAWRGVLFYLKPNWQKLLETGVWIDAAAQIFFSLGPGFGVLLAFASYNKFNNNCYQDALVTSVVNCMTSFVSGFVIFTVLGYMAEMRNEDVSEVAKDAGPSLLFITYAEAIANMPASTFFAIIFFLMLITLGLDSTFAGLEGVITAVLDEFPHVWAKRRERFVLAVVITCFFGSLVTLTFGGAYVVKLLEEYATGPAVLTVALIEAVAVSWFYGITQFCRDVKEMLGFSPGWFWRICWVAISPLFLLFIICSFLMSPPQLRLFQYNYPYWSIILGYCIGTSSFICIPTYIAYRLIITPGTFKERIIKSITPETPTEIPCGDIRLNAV

CN(C)CCC1(COCc2cc(Cl)cc(Br)c2)OCc2ccccc21 (centres unmarked) [Example 31]
IC50 (hSERT): 0.01 to 100 nM
IC50 (NK-1): 100 to 300 nM

N#Cc1ccc(-c2cc(Cl)cc(COCC3(CCN)OCc4ccccc43)c2)cc1 (centres unmarked) [Example 34]
IC50 (hSERT): 0.01 to 100 nM
IC50 (NK-1): 0.01 to 100 nM

NCCC1(COCc2cc(C(F)(F)F)cc(C(F)(F)F)c2)OCCc2ccccc21 (centres unmarked) [Example 39, 2-(1-((3,5-Bis(trifluoromethyl)benzyloxy)methyl)isochroman-1-yl)ethanamine]
IC50 (hSERT): 0.01 to 100 nM
IC50 (NK-1): 0.01 to 100 nM

CN(C)CCC1(COCc2cc(Br)cc(C(F)(F)F)c2)OCc2cc(C#N)ccc21 (centres unmarked) [Example 22]
IC50 (hSERT): > 300 nM
IC50 (NK-1): 0.01 to 100 nM

NCCC1(COCc2cc(-c3ccc(Cl)cc3)cc(C(F)(F)F)c2)OCc2ccccc21 (centres unmarked) [Example 8]
IC50 (hSERT): 100 to 300 nM
IC50 (NK-1): 0.01 to 100 nM

NCCC1(COCc2cc(-c3cccc(F)c3)cc(C(F)(F)F)c2)OCc2ccccc21 (centres unmarked) [Example 10]
IC50 (hSERT): 100 to 300 nM
IC50 (NK-1): 0.01 to 100 nM

N#Cc1cccc(-c2cc(COCC3(CCN)OCc4ccccc43)cc(C(F)(F)F)c2)c1 (centres unmarked) [Example 4]
IC50 (hSERT): 100 to 300 nM
IC50 (NK-1): 100 to 300 nM

CN(C)CCC1(COCc2cc(-c3ccncc3)cc(C(F)(F)F)c2)OCc2cc(C#N)ccc21 (centres unmarked) [Example 26]
IC50 (hSERT): > 300 nM
IC50 (NK-1): 100 to 300 nM

NCCC1(COCc2cc(C(F)(F)F)cc(C(F)(F)F)c2)OCc2ccccc21 (centres unmarked) [Example 35, 2-(1-((3,5-Bis(trifluoromethyl)benzyloxy)methyl)-1,3-dihydroisobenzofuran-1-yl)ethanamine]
IC50 (hSERT): 100 to 300 nM
IC50 (NK-1): 0.01 to 100 nM

NCCC1(COCc2cc(-c3ccccc3Cl)cc(C(F)(F)F)c2)OCc2ccccc21 (centres unmarked) [Example 14]
IC50 (hSERT): > 300 nM
IC50 (NK-1): 100 to 300 nM

CC(OCC1(CCN(C)C)OCc2ccccc21)c1cc(Br)cc(C(F)(F)F)c1 (centres unmarked) [Example 27]
IC50 (hSERT): 100 to 300 nM
IC50 (NK-1): 0.01 to 100 nM

CN(C)CCC1(COCc2cc(N3CCOCC3)cc(C(F)(F)F)c2)OCc2ccccc21 (centres unmarked) [Example 20, N,N-dimethyl-2-(1-((3-morpholino-5-(trifluoromethyl)benzyloxy)methyl)-1,3-dihydroisobenzofuran-1-yl)ethanamine]
IC50 (hSERT): 0.01 to 100 nM
IC50 (NK-1): 0.01 to 100 nM

NCCC1(COCc2cc(-c3cccc(Cl)c3)cc(C(F)(F)F)c2)OCc2ccccc21 (centres unmarked) [Example 13]
IC50 (hSERT): > 300 nM
IC50 (NK-1): 100 to 300 nM

NCCC1(COCc2cc(-c3ccc(F)cc3F)cc(C(F)(F)F)c2)OCc2ccccc21 (centres unmarked) [Example 15]
IC50 (hSERT): 100 to 300 nM
IC50 (NK-1): 0.01 to 100 nM

CN(C)CCCC1(COCc2cc(C(F)(F)F)cc(C(F)(F)F)c2)OCc2ccccc21 (centres unmarked) [Example 38, 3-(1-((3,5-is(trifluoromethyl)benzyloxy)methyl)-1,3-dihydroisobenzofuran-1-yl)-N,N-dimethylpropan-1-amine]
IC50 (hSERT): > 300 nM
IC50 (NK-1): 0.01 to 100 nM

COc1ccc(-c2cc(COCC3(CCN)OCc4ccccc43)cc(C(F)(F)F)c2)cc1 (centres unmarked) [Example 7]
IC50 (hSERT): > 300 nM
IC50 (NK-1): 0.01 to 100 nM

CN(C)CCC1(COCc2cc(-c3ccncc3)cc(C(F)(F)F)c2)OCc2ccccc21 (centres unmarked) [Example 19]
IC50 (hSERT): 0.01 to 100 nM
IC50 (NK-1): 0.01 to 100 nM

NCCCC1(COCc2cc(C(F)(F)F)cc(C(F)(F)F)c2)OCc2ccccc21 (centres unmarked) [Example 37, 3-(1-((3,5-Bis(trifluoromethyl)benzyloxy)methyl)-1,3-dihydroisobenzofuran-1-yl)propan-1-amine]
IC50 (hSERT): 0.01 to 100 nM
IC50 (NK-1): 0.01 to 100 nM

CN(C)CCC1(COCc2cc(C(F)(F)F)cc(C(F)(F)F)c2)OCCc2ccccc21 (centres unmarked) [Example 40, 2-(1-((3,5-Bis(trifluoromethyl)benzyloxy)methyl)isochroman-1-yl)-N,N-dimethylethanamine]
IC50 (hSERT): 0.01 to 100 nM
IC50 (NK-1): 0.01 to 100 nM

N#Cc1ccc2c(c1)COC2(CCN)COCc1cc(Br)cc(C(F)(F)F)c1 (centres unmarked) [Example 24]
IC50 (hSERT): 0.01 to 100 nM
IC50 (NK-1): 0.01 to 100 nM

CC(OCC1(CCN)OCc2ccccc21)c1cc(C(F)(F)F)cc(C(F)(F)F)c1 (centres unmarked) [Example 30]
IC50 (hSERT): > 300 nM
IC50 (NK-1): 0.01 to 100 nM

NCCC1(COCc2cc(-c3ccccc3C(N)=O)cc(C(F)(F)F)c2)OCc2ccccc21 (centres unmarked) [Example 5]
IC50 (hSERT): > 300 nM
IC50 (NK-1): > 300 nM

CN(C)CCC1(COCc2cc(-c3ccc(C#N)cc3)cc(C(F)(F)F)c2)OCc2ccccc21 (centres unmarked) [Example 18]
IC50 (hSERT): 100 to 300 nM
IC50 (NK-1): 0.01 to 100 nM

NCCC1(COCc2cc(-c3ccc(F)c(F)c3)cc(C(F)(F)F)c2)OCc2ccccc21 (centres unmarked) [Example 11]
IC50 (hSERT): 100 to 300 nM
IC50 (NK-1): 0.01 to 100 nM

CN(C)CCC1(COCc2cc(C(F)(F)F)cc(C(F)(F)F)c2)OCc2ccccc21 (centres unmarked) [Example 36, 2-(1-((3,5-Bis(trifluoromethyl)benzyloxy)methyl)-1,3-dihydroisobenzofuran-1-yl)-N,N-dimethylethanamine]
IC50 (hSERT): 0.01 to 100 nM
IC50 (NK-1): 0.01 to 100 nM

NCCC1(COCc2cc(N3CCOCC3)cc(C(F)(F)F)c2)OCc2ccccc21 (centres unmarked) [Example 16, 2-(1-((3-morpholino-5-(trifluoromethyl)benzyloxy)methyl)-1,3-dihydroisobenzofuran-1-yl)ethanamine]
IC50 (hSERT): > 300 nM
IC50 (NK-1): 0.01 to 100 nM

CN(C)CCC1(COCc2cc(Br)cc(C(F)(F)F)c2)OCc2ccccc21 (centres unmarked) [Example 17, 2-(1-((3-bromo-5-(trifluoromethyl)benzyloxy)methyl)-1,3-dihydroisobenzofuran-1-yl)-N,N-dimethylethanamine]
IC50 (hSERT): 0.01 to 100 nM
IC50 (NK-1): 0.01 to 100 nM

N#Cc1ccccc1-c1cc(COCC2(CCN)OCc3ccccc32)cc(C(F)(F)F)c1 (centres unmarked) [Example 6]
IC50 (hSERT): 100 to 300 nM
IC50 (NK-1): 100 to 300 nM

NCCC1(COCc2cc(Cl)cc(Br)c2)OCc2ccccc21 (centres unmarked) [Example 32]
IC50 (hSERT): 0.01 to 100 nM
IC50 (NK-1): 0.01 to 100 nM

CC(OCC1(CCN(C)C)OCc2ccccc21)c1cc(C(F)(F)F)cc(C(F)(F)F)c1 (centres unmarked) [Example 29]
IC50 (hSERT): > 300 nM
IC50 (NK-1): 0.01 to 100 nM

NCCC1(COCc2cc(-c3ccncc3)cc(C(F)(F)F)c2)OCc2ccccc21 (centres unmarked) [Example 3]
IC50 (hSERT): 100 to 300 nM
IC50 (NK-1): 0.01 to 100 nM

CN(C)CCC1(COCc2cc(Cl)cc(-c3ccc(C#N)cc3)c2)OCc2ccccc21 (centres unmarked) [Example 33]
IC50 (hSERT): 0.01 to 100 nM
IC50 (NK-1): 0.01 to 100 nM

CN(C)CCC1(COCc2cc(C(F)(F)F)cc(C(F)(F)F)c2)OCc2cc(C#N)ccc21 (centres unmarked) [Example 21]
IC50 (hSERT): > 300 nM
IC50 (NK-1): 0.01 to 100 nM

NCCC1(COCc2cc(Br)cc(C(F)(F)F)c2)OCc2ccccc21 (centres unmarked) [Example 1, 2-(1-((3-bromo-5-(trifluoromethyl)benzyloxy)methyl)-1,3-dihydroisobenzofuran-1-yl)ethanamine]
IC50 (hSERT): 0.01 to 100 nM
IC50 (NK-1): 0.01 to 100 nM

NCCC1(COCc2cc(-c3ccc(F)cc3)cc(C(F)(F)F)c2)OCc2ccccc21 (centres unmarked) [Example 9]
IC50 (hSERT): 100 to 300 nM
IC50 (NK-1): 0.01 to 100 nM

CN(C)CCC1(COCc2cc(-c3ccc(C#N)cc3)cc(C(F)(F)F)c2)OCc2cc(C#N)ccc21 (centres unmarked) [Example 25]
IC50 (hSERT): > 300 nM
IC50 (NK-1): 0.01 to 100 nM

COc1ccc(-c2cc(COCC3(CCN)OCc4ccccc43)cc(C(F)(F)F)c2)cc1F (centres unmarked) [Example 12]
IC50 (hSERT): > 300 nM
IC50 (NK-1): 0.01 to 100 nM

— patent US7632861B2, “Substituted heterocyclic ethers and their use in CNS disorders” (Bristol-Myers Squibb Company, priority 2007, dated 2009)
